The IC50 is the concentration at which inhibition is half-maximal.

This passage reports IC50 results from ChEMBL document CHEMBL5346926, “Optimization of triazolo[4,5-d]pyrimidines towards human CC chemokine receptor 7 (CCR7) antagonists” (Eur J Med Chem, 2023).

The target of assay [1] is T1, C-C chemokine receptor type 7 (Homo sapiens, UniProt P32248).
T1 sequence (P32248 whole entry): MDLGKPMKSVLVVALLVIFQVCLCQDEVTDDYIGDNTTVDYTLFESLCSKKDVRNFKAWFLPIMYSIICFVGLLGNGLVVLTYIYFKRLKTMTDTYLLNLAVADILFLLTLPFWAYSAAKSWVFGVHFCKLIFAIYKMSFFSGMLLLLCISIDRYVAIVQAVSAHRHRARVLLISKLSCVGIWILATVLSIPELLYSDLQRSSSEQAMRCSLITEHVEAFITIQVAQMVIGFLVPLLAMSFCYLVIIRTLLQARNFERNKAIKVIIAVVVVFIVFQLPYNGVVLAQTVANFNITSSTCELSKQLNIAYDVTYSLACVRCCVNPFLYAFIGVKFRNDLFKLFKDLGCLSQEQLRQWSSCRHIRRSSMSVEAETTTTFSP
Briefly: Antagonist activity at CCR7 in human CD4 cells by fluorescence based calcium mobilization assay. In kind it is functional, cell-based, CD4+ve Th. For orientation: Calcium flux is commonly read through the fluorescence of an indicator in the cells.

Assay [2] addresses T2, C-X-C chemokine receptor type 2 (Homo sapiens, UniProt P25025).
T2 sequence (P25025 whole entry): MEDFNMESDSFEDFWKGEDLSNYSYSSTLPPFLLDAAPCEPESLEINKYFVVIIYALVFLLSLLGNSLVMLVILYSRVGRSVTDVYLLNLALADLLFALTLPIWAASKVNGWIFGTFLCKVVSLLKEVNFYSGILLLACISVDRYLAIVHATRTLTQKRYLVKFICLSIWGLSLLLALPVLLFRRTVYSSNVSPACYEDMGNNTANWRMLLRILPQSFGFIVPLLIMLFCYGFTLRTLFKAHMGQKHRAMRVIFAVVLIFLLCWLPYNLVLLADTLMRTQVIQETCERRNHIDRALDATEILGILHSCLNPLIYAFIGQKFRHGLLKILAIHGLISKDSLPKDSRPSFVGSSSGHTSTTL
Put plainly: Antagonist activity at CXCR2 in human CD4 cells by fluorescence based calcium mobilization assay. In kind it is functional, cell-based, CD4+ve Th.

Assay [3] deals with T1, C-C chemokine receptor type 7. Put plainly: Competitive binding affinity to CCR7 in human U87 cells preincubated for 15 mins followed by CCL19 AF647 addition measured after 30 mins by flow cytometric analysis. Format: cell-based. On the technique in general: In flow cytometry, cells or beads pass a laser one at a time.

For the molecule `C[C@H](CO)Nc1nc(SCc2cccc(F)c2F)nc2cc[nH]c12`, the IC50 in assay [1] was above 30 µM.

Take `C[C@H](CO)Nc1nc(Sc2ccccc2)nc2[nH]nnc12`: the IC50 in assay [1] was above 30 µM.

As to `C[C@@H](CO)Nc1nc(SCc2cccc(F)c2F)nc2[nH]nnc12`, the IC50 in assay [2] is 1.75 µM.

With `C[C@H](CO)Nc1nc(SCC2CCCC2)nc2[nH]nnc12`, the IC50 in assay [2] turned out to be 2.37 µM.

As to `COCCNc1nc(SCc2cccc(F)c2F)nc2[nH]nnc12`, the IC50 amounted to 17.2 µM in assay [1] and 8.78 µM in assay [2].

As for `C[C@H](CO)Nc1nc(OCc2cccc(F)c2F)nc2[nH]nnc12`, the IC50 in assay [1] came to 23.8 µM.

For `C[C@H](CO)Nc1nc(SCc2cccc(F)c2F)nc2c1nnn2C`, the IC50 in assay [1] is above 30 µM.

Turning to `C[C@H](CCO)Nc1nc(SCc2cccc(F)c2F)nc2[nH]nnc12`, the values for the IC50 in assay [1] and in assay [2] were 7.14 µM and 2.09 µM, respectively.

Take `CC(C)(C)OC(=O)N1CCN(c2nc(SCc3cccc(F)c3F)nc3[nH]nnc23)CC1`: the results for the IC50 in assay [1] and in assay [2] were above 30 µM and 11.5 µM, respectively.

Regarding `C[C@H](CO)Nc1nc(SCc2cccc(F)c2F)nc2c1CNCC2`, in assay [1], the IC50 was above 30 µM.

For `OCCSc1nc(SCc2cccc(F)c2F)nc2[nH]nnc12`, in assay [1], the IC50 stood at 5.81 µM.

As for `CCCC(C)CSc1nc(N[C@H](C)CO)c2nn[nH]c2n1` (stereo not given in full), the IC50 is 8.49 µM in assay [1] and 2.58 µM in assay [2].

Regarding `Fc1cccc(CSc2nc(NCC3CC3)c3nn[nH]c3n2)c1F`, the values for the IC50 in assay [1] and in assay [2] were above 30 µM and 2.98 µM, respectively.

Take `C[C@H](CO)Nc1nc(SCCC2CCCCC2)nc2[nH]nnc12`: in assay [1], the IC50 worked out at 1.68 µM.

With `Cc1ccc([C@H](NC2=NS(=O)(=O)N=C2Nc2ccc(C)c(C(=O)N(C)C)c2O)C(C)(C)C)o1`, the IC50 in assay [2] is 6.4 µM.

With `C[C@H](CO)Nc1nc(SCCc2ccccc2)nc2[nH]nnc12`, in assay [1], the IC50 was determined as 1.18 µM.

Regarding `CN(C)c1nc(SCc2cccc(F)c2F)nc2[nH]nnc12`, in assay [1], the IC50 was above 30 µM.

In the case of `CN(C)CCNc1nc(SCc2cccc(F)c2F)nc2[nH]nnc12`, the IC50 in assay [1] and in assay [2] was above 30 µM each time.

As to `CC(C)CCCCSc1nc(N[C@H](C)CO)c2nn[nH]c2n1`, the IC50 in assay [1] was 5.28 µM.

Consider `C[C@H](CO)Nc1nc(SCc2cccc(F)c2F)nc2ccsc12`, for which the IC50 in assay [1] was above 30 µM.

With `OCCNc1nc(SCc2cccc(F)c2F)nc2[nH]nnc12`, the IC50 in assay [1] worked out at 8.66 µM.

For `C[C@H](CO)Nc1nc(SCc2cccc(F)c2F)nc2cnccc12`, the half-maximal inhibitory concentration (IC50) in assay [1] was above 30 µM.

For the molecule `CCCNC(=O)CSc1nc(N[C@H](C)CO)c2nn[nH]c2n1`, the IC50 in assay [2] was above 30 µM.

For the molecule `OCCCNc1nc(SCc2cccc(F)c2F)nc2[nH]nnc12`, in assay [1], the IC50 was determined as 18.6 µM.

Consider `Fc1cccc(CSc2nc(N3CCNCC3)c3nn[nH]c3n2)c1F`, for which the IC50 in assay [1] and in assay [2] was above 30 µM each time.

As for `CCCCCCSc1nc(N[C@H](C)CO)c2nn[nH]c2n1`, the IC50 stood at 0.43 µM in assay [1] and 1.78 µM in assay [3].

For the molecule `CCCOCCSc1nc(N[C@H](C)CO)c2nn[nH]c2n1`, the IC50 in assay [1] amounted to 29.3 µM.

As for `C[C@H](CO)Nc1nc(SCc2cccc(F)c2F)nc2sccc12`, the IC50 in assay [1] was above 30 µM.

As for `C[C@H](CO)Nc1nc(SCc2cccc(F)c2F)nc2nc(N)sc12`, the IC50 in assay [1] was above 30 µM.

Consider `C[C@H](CO)Nc1nc(SCc2cccc(F)c2F)nc2cccnc12`, for which, in assay [1], the IC50 was above 30 µM.

For the molecule `C[C@H](CO)Nc1nc(SC2CCCCC2)nc2[nH]nnc12`, the IC50 in assay [2] was above 30 µM.

`CC(C)(CO)Nc1nc(SCc2cccc(F)c2F)nc2[nH]nnc12`: the IC50 in assay [1] was determined as 2.29 µM.
